# From ChEMBL document CHEMBL1201862, “PubChem BioAssay data set” (2004)
# The source made the active and inactive calls.
# Tests used:
# Interleukin-8 = molecular target: T1, Interleukin-8 (Homo sapiens, UniProt P10145); assay: Dose Response confirmation of uHTS small molecule hits for cystic fibrosis induced NFkb Inhibitors in a PAF-induced IL8 counterscreen.; type: functional; conditions: read-out: IC50_Mean
# T1 sequence (P10145 whole entry): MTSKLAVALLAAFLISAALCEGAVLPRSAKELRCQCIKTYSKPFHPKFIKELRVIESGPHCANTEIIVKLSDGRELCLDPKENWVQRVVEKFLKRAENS
# [1] = molecular target: Mitogen-activated protein kinase 10 (Homo sapiens, UniProt P53779); assay: Dose response biochemical screening assay for inhibitors of c-Jun N-Terminal Kinase 3 (JNK3). [Related pubchem assays: 746 ]
# Mitogen-activated protein kinase 10, sequence (P53779 whole entry): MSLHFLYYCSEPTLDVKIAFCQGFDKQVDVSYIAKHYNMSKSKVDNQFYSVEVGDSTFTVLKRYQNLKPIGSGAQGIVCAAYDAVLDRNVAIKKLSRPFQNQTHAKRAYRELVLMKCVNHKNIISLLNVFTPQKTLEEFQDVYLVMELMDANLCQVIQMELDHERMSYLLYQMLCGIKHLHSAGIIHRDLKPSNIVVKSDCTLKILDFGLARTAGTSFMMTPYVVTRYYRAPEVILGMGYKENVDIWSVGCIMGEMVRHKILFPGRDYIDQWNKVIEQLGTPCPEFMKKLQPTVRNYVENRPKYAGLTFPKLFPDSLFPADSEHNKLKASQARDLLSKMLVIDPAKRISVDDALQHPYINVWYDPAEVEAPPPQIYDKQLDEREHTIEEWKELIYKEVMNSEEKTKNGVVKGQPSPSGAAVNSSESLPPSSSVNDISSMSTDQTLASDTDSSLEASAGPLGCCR
# [2] = molecular target: T2, Aryl hydrocarbon receptor (Homo sapiens, UniProt P35869); conditions: Potency;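 note: confirmatory quantitative high-throughput screen measuring activation of the AhR signaling pathway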
# T2 sequence (P35869 whole entry): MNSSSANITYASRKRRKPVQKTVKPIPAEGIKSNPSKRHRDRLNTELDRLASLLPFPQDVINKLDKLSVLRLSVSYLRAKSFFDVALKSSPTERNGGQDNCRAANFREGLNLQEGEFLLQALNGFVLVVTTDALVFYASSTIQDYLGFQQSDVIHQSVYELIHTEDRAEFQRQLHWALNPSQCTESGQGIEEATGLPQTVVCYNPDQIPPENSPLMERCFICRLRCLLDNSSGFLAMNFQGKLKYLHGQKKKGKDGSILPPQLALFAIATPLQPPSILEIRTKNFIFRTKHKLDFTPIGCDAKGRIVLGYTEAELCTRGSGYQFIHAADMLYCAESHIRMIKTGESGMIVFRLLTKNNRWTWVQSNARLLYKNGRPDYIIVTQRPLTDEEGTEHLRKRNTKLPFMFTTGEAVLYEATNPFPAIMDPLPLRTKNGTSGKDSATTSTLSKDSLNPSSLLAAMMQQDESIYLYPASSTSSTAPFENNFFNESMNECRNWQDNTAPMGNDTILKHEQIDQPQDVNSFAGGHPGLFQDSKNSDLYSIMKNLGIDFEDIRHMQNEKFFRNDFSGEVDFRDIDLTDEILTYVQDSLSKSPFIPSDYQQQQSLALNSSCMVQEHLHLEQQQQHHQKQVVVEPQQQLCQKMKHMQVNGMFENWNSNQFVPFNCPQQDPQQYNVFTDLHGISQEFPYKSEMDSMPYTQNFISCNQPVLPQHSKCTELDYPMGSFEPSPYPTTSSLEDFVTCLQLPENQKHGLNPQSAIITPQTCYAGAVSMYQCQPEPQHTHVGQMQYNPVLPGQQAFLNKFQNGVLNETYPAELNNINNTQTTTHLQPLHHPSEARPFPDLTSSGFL
# [3] = control 3'UTR Renilla luciferase suppression, dose response, counter-screen for Shn3 inhibitor project, cell-based, Clone20-Shn3RL, cherry-picked (AID 624133); type: functional
# [4] = Shn3 3'UTR reporter inhibitors, dose response, cell-based, Clone20 osteoblasts, firefly luciferase, cherry-picked (AID 624132); type: functional;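 note: firefly luciferase luminescence from reporter carrying the Shn3 3'UTR in osteoblasts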
# Protein Wnt-3a = Protein Wnt-3a (Mus musculus, UniProt P27467); assay: Wnt3a-driven reporter signaling inhibition, dose response, selectivity assay for Gli-SUFU antagonist project, Wnt-LIGHT cells, luminescence (AID 651570); type: functional; conditions: read-out: IC50_Mean;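 note: Wnt-LIGHT reporter cells stimulated with conditioned medium from Wnt3a-producing cells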
# Protein Wnt-3a, sequence (P27467 whole entry): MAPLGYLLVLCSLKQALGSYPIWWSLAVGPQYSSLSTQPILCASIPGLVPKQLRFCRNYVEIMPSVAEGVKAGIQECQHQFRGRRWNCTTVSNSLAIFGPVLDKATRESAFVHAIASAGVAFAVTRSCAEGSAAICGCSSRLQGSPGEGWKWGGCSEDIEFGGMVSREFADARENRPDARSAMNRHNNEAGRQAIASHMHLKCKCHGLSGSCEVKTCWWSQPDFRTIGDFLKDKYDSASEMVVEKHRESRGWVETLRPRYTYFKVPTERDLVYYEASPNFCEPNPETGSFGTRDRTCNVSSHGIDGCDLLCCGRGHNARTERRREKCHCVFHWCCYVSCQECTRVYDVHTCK
# [5] = HepG2 cell cytotoxicity, dose response, cytotoxicity control for Shn3 inhibitor project, CellTiter-Glo, cherry-picked (AID 624134); type: functional, cell-based
# [6] = inhibitors of clade B AD8 Env fusion, dose response, cell-based, cherry-pick (AID 652062); type: functional;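 note: luciferase signal from cell-cell fusion driven by HIV-1 clade B AD8 Env; potency is for inhibitors of fusion seen as a drop in luminescence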
# [7] = inhibitors of HIV Env-driven cell fusion, dose response, cherry-pick (AID 652057); type: functional, cell-based
# [8] = off-target signal loss in HeLa-CEM21 co-culture – HeLa F-luc CTL cells, cherry-picked, counter-screen for HIV-1 Env fusion inhibitor project, dose response (AID 652040); type: functional, cell-based;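 note: potency for signal decrease marking cytotoxic or nonspecific inhibition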
# [9] = molecular target: T3, Methionyl-tRNA synthetase, putative (Trypanosoma brucei brucei, UniProt Q38C91); type: functional, Trypanosoma brucei brucei strain 927/4 GUTat10.1
# T3 sequence (Q38C91 whole entry): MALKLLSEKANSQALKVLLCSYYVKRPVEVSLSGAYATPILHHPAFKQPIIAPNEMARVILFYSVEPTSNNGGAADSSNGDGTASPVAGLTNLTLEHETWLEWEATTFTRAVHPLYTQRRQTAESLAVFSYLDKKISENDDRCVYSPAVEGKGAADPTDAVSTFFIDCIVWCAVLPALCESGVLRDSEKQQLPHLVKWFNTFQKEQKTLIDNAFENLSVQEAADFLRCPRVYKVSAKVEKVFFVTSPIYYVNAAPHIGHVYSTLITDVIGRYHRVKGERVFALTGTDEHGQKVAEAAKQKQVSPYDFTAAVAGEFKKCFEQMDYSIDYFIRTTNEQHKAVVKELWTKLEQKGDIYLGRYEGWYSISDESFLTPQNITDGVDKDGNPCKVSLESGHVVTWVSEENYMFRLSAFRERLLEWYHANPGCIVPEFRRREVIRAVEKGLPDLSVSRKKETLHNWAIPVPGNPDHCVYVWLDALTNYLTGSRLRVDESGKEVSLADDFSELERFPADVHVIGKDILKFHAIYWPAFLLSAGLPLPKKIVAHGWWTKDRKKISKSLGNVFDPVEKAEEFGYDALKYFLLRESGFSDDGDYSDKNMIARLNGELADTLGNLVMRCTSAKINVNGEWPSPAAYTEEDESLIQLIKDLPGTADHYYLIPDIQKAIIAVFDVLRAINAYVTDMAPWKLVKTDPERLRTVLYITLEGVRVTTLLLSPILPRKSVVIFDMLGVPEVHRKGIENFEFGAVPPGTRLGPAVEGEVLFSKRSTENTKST
# [10] = molecular target: T3, Methionyl-tRNA synthetase, putative; type: functional, Trypanosoma brucei brucei strain 927/4 GUTat10.1; remark: listed apart in the source
# [11] = Counterscreen for inhibitors of Trypanosoma brucei methionyl tRNA synthetase (MetRS): Luminescence-based cell-based high throughput dose response assay to identify compounds that are cytotoxic to Jurkat human T lymphocyte cells.; type: functional
# [12] = molecular target: Potassium voltage-gated channel subfamily KQT member 2 (Rattus norvegicus, UniProt O88943); assay: KCNQ2 potassium channel inhibitors, dose response, cell-based, automated electrophysiology, set II, rat KCNQ2 (AID 588637); type: functional
# Potassium voltage-gated channel subfamily KQT member 2, sequence (O88943 whole entry): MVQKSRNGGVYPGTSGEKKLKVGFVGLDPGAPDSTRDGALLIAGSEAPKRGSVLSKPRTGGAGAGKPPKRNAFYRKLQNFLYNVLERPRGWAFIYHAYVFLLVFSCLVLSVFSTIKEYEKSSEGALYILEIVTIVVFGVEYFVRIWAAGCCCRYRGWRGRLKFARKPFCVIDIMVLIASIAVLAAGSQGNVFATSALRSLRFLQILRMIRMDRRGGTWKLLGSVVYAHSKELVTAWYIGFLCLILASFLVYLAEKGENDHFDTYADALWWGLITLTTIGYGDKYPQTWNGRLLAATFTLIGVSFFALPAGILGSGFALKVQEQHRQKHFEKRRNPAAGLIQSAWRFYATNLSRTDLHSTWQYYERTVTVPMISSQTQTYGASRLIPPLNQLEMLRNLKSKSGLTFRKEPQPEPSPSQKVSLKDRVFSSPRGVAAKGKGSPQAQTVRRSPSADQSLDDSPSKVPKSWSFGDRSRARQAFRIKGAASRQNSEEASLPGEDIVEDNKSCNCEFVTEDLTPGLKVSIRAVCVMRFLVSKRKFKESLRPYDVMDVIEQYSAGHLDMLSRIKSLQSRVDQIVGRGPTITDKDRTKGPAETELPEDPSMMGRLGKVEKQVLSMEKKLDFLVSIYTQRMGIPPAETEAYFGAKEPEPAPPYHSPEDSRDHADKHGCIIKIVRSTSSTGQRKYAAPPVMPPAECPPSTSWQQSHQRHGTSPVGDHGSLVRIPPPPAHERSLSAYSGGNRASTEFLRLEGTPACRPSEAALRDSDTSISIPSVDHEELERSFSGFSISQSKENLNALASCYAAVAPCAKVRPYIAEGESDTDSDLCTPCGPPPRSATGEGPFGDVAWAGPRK
# Orexin receptor type 2 [13] = molecular target: T4, Orexin receptor type 2 (Homo sapiens, UniProt O43614); assay: Counterscreen assay for antagonists of the orexin 1 receptor (OX1R; HCRTR1): Fluorescence-based cell-based dose response assay for antagonists of the orexin 2 receptor (OX2R; HCRTR2), run by assay provider.; type: functional
# T4 sequence (O43614 whole entry): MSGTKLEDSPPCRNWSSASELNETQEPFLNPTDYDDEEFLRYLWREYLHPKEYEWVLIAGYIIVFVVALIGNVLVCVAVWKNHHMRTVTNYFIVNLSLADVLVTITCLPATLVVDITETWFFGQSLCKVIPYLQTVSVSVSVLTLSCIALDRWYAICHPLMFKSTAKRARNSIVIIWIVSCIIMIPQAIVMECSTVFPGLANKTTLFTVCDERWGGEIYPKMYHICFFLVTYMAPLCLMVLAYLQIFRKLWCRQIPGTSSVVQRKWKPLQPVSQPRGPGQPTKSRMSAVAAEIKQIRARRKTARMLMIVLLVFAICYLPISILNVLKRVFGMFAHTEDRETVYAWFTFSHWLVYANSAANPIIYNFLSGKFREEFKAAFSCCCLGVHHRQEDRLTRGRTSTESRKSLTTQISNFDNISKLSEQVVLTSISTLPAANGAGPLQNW
# [14] = molecular target: T5, Orexin/Hypocretin receptor type 1 (Homo sapiens, UniProt O43613); assay: (§1) Fluorescence-based cell-based high throughput dose response assay for antagonists of the orexin 1 receptor (OX1R; HCRTR1). [Related pubchem assays (depositor defined):AID434989, AID435008, AID463079, AID485270, AID492963, AID492964, AID492965, AID493232, AID504717, AID504718]; type: functional
# T5 sequence (O43613 whole entry): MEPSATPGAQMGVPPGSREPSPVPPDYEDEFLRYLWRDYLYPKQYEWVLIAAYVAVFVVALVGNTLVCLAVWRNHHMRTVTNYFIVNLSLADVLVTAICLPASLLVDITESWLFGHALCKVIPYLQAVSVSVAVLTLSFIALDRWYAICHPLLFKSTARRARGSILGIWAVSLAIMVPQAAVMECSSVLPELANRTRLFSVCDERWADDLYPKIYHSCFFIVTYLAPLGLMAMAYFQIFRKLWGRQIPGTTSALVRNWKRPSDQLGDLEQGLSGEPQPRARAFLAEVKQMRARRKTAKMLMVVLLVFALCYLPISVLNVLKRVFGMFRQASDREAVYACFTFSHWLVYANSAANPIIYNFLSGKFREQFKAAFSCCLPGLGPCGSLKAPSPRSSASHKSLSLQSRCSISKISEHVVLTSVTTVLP
# [15] = (§2) Counterscreen for antagonists of the orexin 1 receptor (OX1R; HCRTR1): Fluorescence-based cell-based high throughput dose response assay to identify antagonists of the parental CHO cell line. [Related pubchem assays (depositor defined):AID434989, AID435008, AID463079, AID485270, AID492963, AID492964, AID492965, AID493232, AID504699, AID504701]; type: functional
# CHO-K1 = assay: as §2, with “Homogeneous time resolved fluorescence (HTRF)-based” for “Fluorescence-based”, “cell-based” for “cell-based high throughput”, “CHO-K1” for “CHO”; type: functional; conditions: Cricetulus griseus;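 note: potency for inhibition of ATP-stimulated IP1 production as antagonists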
# [16] = molecular target: T5, Orexin/Hypocretin receptor type 1; assay: as §1, with “Homogeneous Time Resolved Fluorescence (HTRF)-based” for “Fluorescence-based”; type: functional
# Orexin receptor type 2 [17] = molecular target: T4, Orexin receptor type 2; assay: Counterscreen assay for antagonists of the orexin 1 receptor (OX1R; HCRTR1): Homogeneous Time Resolved Fluorescence (HTRF)-based cell-based dose response assay for antagonists of the orexin 2 receptor (OX2R; HCRTR2), run by assay provider.; type: functional
# [18] = molecular target: Long-chain-fatty-acid--AMP ligase FadD28 (Mycobacterium tuberculosis, UniProt P9WQ59); assay: Fluorescence polarization aasay to screen for inhibitors that compete for the binding of FadD28 to a bisubstrate Measured in Biochemical System Using Plate Reader - 2147-01_Inhibitor_Dose_CherryPick_Activity.; type: functional, Mycobacterium tuberculosis H37Rv
# Long-chain-fatty-acid--AMP ligase FadD28, sequence (P9WQ59 whole entry): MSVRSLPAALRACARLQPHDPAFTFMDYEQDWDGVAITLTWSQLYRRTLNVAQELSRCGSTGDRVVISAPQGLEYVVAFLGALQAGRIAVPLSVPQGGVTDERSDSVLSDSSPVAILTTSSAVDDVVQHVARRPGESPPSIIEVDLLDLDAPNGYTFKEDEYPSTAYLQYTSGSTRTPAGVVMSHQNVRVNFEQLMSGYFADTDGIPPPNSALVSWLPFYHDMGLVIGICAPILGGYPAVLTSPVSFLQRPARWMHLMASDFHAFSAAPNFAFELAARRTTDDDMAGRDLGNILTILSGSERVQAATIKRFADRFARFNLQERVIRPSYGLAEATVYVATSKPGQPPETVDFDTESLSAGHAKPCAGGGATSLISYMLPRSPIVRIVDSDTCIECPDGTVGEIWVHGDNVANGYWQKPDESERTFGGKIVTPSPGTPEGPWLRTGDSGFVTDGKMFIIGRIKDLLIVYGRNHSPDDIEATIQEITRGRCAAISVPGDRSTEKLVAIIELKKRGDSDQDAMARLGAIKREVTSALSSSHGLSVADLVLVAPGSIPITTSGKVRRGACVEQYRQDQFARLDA
# [19] = molecular target: T6, Corticotropin-releasing factor receptor 2/Corticotropin-releasing factor-binding protein (Homo sapiens, UniProt P24387+Q13324); assay: activators of CRF receptor 2 with binding protein – uHTS hits, confirmation (AID 602473); type: functional; conditions: read-out: EC50_Mean
# T6 sequence (Q13324 whole entry): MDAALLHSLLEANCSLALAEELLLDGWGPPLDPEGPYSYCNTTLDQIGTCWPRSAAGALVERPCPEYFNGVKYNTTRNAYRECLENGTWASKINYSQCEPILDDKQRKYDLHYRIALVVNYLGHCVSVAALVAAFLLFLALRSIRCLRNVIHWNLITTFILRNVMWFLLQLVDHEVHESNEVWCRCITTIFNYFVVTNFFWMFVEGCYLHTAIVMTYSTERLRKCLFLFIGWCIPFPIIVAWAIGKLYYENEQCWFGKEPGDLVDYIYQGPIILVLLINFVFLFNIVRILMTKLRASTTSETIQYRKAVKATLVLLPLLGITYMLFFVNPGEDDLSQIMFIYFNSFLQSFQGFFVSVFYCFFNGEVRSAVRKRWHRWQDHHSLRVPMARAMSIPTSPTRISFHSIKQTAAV
# T6 sequence (P24387 whole entry): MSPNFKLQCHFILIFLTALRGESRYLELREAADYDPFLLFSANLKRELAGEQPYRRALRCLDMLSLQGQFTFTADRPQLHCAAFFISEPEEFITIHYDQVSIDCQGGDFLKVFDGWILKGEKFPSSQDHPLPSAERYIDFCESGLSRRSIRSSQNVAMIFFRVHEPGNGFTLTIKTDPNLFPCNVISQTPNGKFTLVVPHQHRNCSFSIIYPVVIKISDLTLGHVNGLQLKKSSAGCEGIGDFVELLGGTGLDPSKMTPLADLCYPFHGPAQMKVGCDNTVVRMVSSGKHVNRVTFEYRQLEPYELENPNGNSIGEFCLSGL
smiles,measurement,setting,value
COc1ccc(-c2cnc(N)nc2-c2ccc(OC)cc2O)cc1,IC50,Interleukin-8,14.6 µM (inactive)
same,IC50,[1],19.9 µM (not active)
Cc1ccc2c(c1[N+](=O)[O-])C(=O)c1ccccc1C2=O,AC50,[2],17.8 µM (inconclusive)
CCC(C)NS(=O)(=O)c1ccc(S(=O)(=O)N2CCCC3(CCCCC3)C2)cc1 (stereo not given),AC50,[3],5.9 µM (active)
same,AC50,[4],3.44 µM (active)
same,IC50,Protein Wnt-3a,5.16 µM (active)
same,AC50,[5],6.54 µM (active)
same,AC50,[6],11.7 µM (active)
same,AC50,[7],21.4 µM (active)
same,AC50,[8],58.9 µM (active)
COc1cccc(C2c3[nH]c4ccccc4c3C[C@H]3C(=O)N(C4CC4)CC(=O)N23)c1 (stereo not given in full),IC50,[9],36.8 µM (inactive)
same,IC50,[10],118 µM (inactive)
same,IC50,[11],83.2 µM (inactive)
CCc1sc(C(=O)Nc2ccccc2N2CCOCC2)cc1C,IC50,[12],5.75 µM (active)
CCC(C(=O)Nc1ccccc1N1CCCC1)c1ccccc1 (stereo not given),IC50,[12],0.161 µM (active)
COC(=O)[C@H](Cc1c[nH]c2ccccc12)NC(=O)CCCc1c[nH]c2ccccc12,IC50,Orexin receptor type 2 [13],17.2 µM (inactive)
same,IC50,[14],9.04 µM (active)
same,IC50,[15],17.4 µM (inactive)
same,IC50,CHO-K1,> 66.2 µM (inactive)
same,IC50,[16],15.3 µM (inactive)
same,IC50,Orexin receptor type 2 [17],6.41 µM (active)
O=C(Cc1ccc(Nc2nc3cc(Br)ccc3[nH]2)cc1)NCCc1cccs1,IC50,[9],0.286 µM (active)
same,IC50,[10],0.163 µM (active)
same,IC50,[11],27.8 µM (inactive)
O=C1N=C(S)SC1=Cc1ccc(N(CCCl)CCCl)cc1,AC50,[18],66.7 µM (active)
same,EC50,[19],5.45 µM (active)
NC(=O)c1ccccc1OCC(=O)N1CCC(Cc2ccccc2)CC1,IC50,Protein Wnt-3a,3.28 µM (active)
Cc1ccc2nc(Nc3ccccc3)c(/C=N/O)c(=O)n2c1,IC50,Orexin receptor type 2 [13],32.5 µM (inactive)
same,IC50,[14],9.96 µM (active)
same,IC50,[15],> 49.8 µM (inactive)
same,IC50,CHO-K1,> 66.3 µM (inactive)
same,IC50,[16],5.11 µM (active)
same,IC50,Orexin receptor type 2 [17],> 50 µM (inactive)
COc1ccc(CN2CCC(C(=O)Nc3ccc(Oc4cccnc4)cc3)CC2)cc1,AC50,[18],> 100 µM (inactive)
CC1=C(C(=O)Nc2ccccc2)SCCO1 [CARBOXIN],AC50,[2],50.1 µM (inconclusive)
